From patent publication US9034336B2, “Immunomodulators and immunomodulator conjugates” (Regents of the University of Minnesota, priority 2011, dated 2015)

What was measured:
[1] = system: human monocyte-derived dendritic cells (MoDC); assay: Human MoDC immunostaining and flow cytometric analysis (maturation, DC phenotype); format: cell-based
Method: 1. Dendritic cells were generated from peripheral blood monocytes as described (Brossart P, et al. Blood. 1998; 92: 4238-4247). In brief, CD14 positive monocytes were from a healthy human peripheral blood mononuclear cells (PBMC) obtained via isolation with Lymphocyte Separation Medium (Mediatech, Inc, Manassas, Va.) and after purification with CD14 microbeads from Miltenyi Biotec Inc (Aubun, Calif.). The CD14 positive monocytes (>95% CD14) were cultured into immature monocyte-derived dendritic cells (MoDC) by further 6 day culture with GM-CSF (100 ng/ml) and IL-4 (100 ng/ml)(R&D, MN). 2. 0.1 million of MoDC were plated into 96-well plate and stimulated for 48 hours with 5 different concentration of following TLRs: 412, 420, 421, 414 and 415 at concentration of 0, 0.325, 1.3, 5.2 and 20.8 nmol/ml in triplicate. In other experiments (FIGS. 34 and 35), fresh PBMC (not DC) were used as the responder cells to the indicated compounds and cytokines levels were measured by bead array according to the manufacture's protocol (BD biosciences).
48 hours after stimulation, the cells were stained with anti-HLA-DR, CD11c, CD-86, CD80, CD83, CD8a, CD123 and relevant isotype control (eBioscience, San Diego, Calif.). The cells were loaded on FACS-canto II and analyzed with FACSDiva and Flowjo

[2] = system: BMDC or splenocytes; assay: Inflammatory cytokine detection in BMDC and splenocytes (CBA); format: cell-based, C57BL/6j mice; conditions: Example 6, FIG. 23; compared to resiquimod and imiquimod
Method: (§1) Bone marrow cells were harvested from femurs and tibias of C57BL/6j. After red blood cells were removed with ammonium-chloride-potassium buffer, the bone marrow cells were cultured with complete RPMI-1640 medium and 2 ng/ml of granulocyte macrophage colony-stimulating factor (GM-CFS) at 5% CO2 and 37° C. for 6 days. Medium was changed twice during 6 days culture. Single cell suspension of splenocytes was prepared in the same way as one in IL-6 detection assay. BMDC or splenocytes were stimulated in triplicate with Imiquimod-derived new TLR ligand compounds, 412, 420, 421, 422, IMQ (414) and Resquimod (415) at various concentration of 20.8 nmol/ml, 5.2 nmol/ml, 1.3 nmol/ml, 0.325 nmol/ml and 0 nmol/ml. 48 hours after stimulation, the supernatants were harvested and frozen at −80° C. until detection. A cytometric bead array (CBA, BD Bioscience) was performed on inflammatory cytokines following the manufacture's instruction. 500 events were collected. Analysis of all samples was performed on FACScanto-II machine with software and further analyzed with Flowjo. Standard curves and negative control (PBS) were included for each cytokine to calculate the cytokine concentration in the samples.

[3] = system: mouse splenocytes; assay: Inflammatory cytokine detection in splenocytes (CBA); format: cell-based, C57BL/6j mice
Method: as §1

CCCCc1nc2c(N)nc3cc(C(=O)OC)ccc3c2n1CC(C)(C)O [Compound 420, 4-Amino-2-butyl-1-(2-hydroxy-2-methylpropyl)-7-methoxycarbonyl-1H-imidazo[4,5-c]quinoline]
differentiation of myeloid DC into CD123+ plasmacytoid DC ([1]; human MoDC (FIG. 4)): did not
MoDC maturation (raising CD86 co-stimulator level and CD83) ([1]; human MoDC, 48 hours after stimulation): same efficiency as Resiquimod and significantly stronger than imiquimod
elaboration of proinflammatory TNFa [2]: significantly greater elaboration of proinflammatory TNFa compared to the other drugs
IL-10 (anti-inflammatory) secretion [3]: less IL-10 (anti-inflammatory) secretion compared to resiquimod
